Data: ChEMBL document CHEMBL1201862, “PubChem BioAssay data set” (2004)
Several values for one entry are separate records, joined by “and”; a condition that tells them apart may be missing. Equal entries are not always repeated.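 Dose response: 5 concentrations. Exposure: 48 h. Format: 96-well plates. Endpoint: linear interpolation; highest concentration if not reached. GI50 is the concentration that inhibits growth by half.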 Activity calls are given as the source filed them. No stated cut-off is given here; in the data, active = GI50 up to about 1.1 µM and inactive = higher.

Assays:
Assay in all cases: NCI-60 cell line screen, 48 h
[1] = tested on: RPMI-8226
[2] = tested on: SW-620
[3] = tested on: MOLT-4
[4] = tested on: HL-60
[5] = tested on: SK-MEL-28
[6] = tested on: EKVX
[7] = tested on: HOP-62
[8] = tested on: M14
[9] = tested on: PC-3
[10] = tested on: K562
[11] = tested on: MDA-MB-231
[12] = tested on: HCC 2998
[13] = tested on: SK-OV-3
[14] = tested on: UACC-257
[15] = tested on: SF-268
[16] = tested on: T47D
[17] = tested on: OVCAR-8
[18] = tested on: SNB-75
[19] = tested on: HCT-15
[20] = tested on: DU-145
[21] = tested on: IGROV-1
[22] = tested on: A549
[23] = tested on: 786-0
[24] = tested on: NCI-H23
[25] = tested on: Malme-3M
[26] = tested on: SR
[27] = tested on: SN12C
[28] = tested on: TK-10
[29] = tested on: SF-295
[30] = tested on: RXF 393
[31] = tested on: UACC-62
[32] = tested on: COLO 205
[33] = tested on: MDA-N
[34] = tested on: CAKI-1
[35] = tested on: SK-MEL-5
[36] = tested on: HT-29
[37] = tested on: KM12
[38] = tested on: MCF7
[39] = tested on: A498
[40] = tested on: SF-539
[41] = tested on: OVCAR-3
[42] = tested on: NCI-H226
[43] = tested on: NCI-H522
[44] = tested on: ACHN
[45] = tested on: OVCAR-5
[46] = tested on: NCI/ADR-RES
[47] = tested on: SK-MEL-2
[48] = tested on: OVCAR-4
[49] = tested on: MDA-MB-435
[50] = tested on: U-251
[51] = tested on: CCRF-CEM
[52] = tested on: HOP-92
[53] = tested on: UO-31
[54] = tested on: NCI-H460
[55] = tested on: LOX IMVI
[56] = tested on: HCT-116
[57] = tested on: SNB-19

Compound: Clc1ccc(/C=N/Nc2nnc3c4ccccc4c4ncccc4c3n2)cc1
- GI50 [1]: > 10 µM (inactive)
- GI50 [2]: > 10 µM (inactive)
- GI50 [3]: > 10 µM (inactive)
- GI50 [4]: > 10 µM (inactive)
- GI50 [5]: > 10 µM (inactive)
- GI50 [6]: > 10 µM (inactive)
- GI50 [7]: > 10 µM (inactive)
- GI50 [8]: > 10 µM (inactive)
- GI50 [9]: > 10 µM (inactive)
- GI50 [10]: > 10 µM (inactive)
- GI50 [11]: > 10 µM (inactive)
- GI50 [12]: > 10 µM (inactive)
- GI50 [13]: > 10 µM (inactive)
- GI50 [14]: > 10 µM (inactive)
- GI50 [15]: > 10 µM (inactive)
- GI50 [16]: > 10 µM (inactive)
- GI50 [17]: > 10 µM (inactive)
- GI50 [18]: > 10 µM (inactive)
- GI50 [19]: > 10 µM
- GI50 [20]: > 10 µM (inactive)
- GI50 [21]: > 10 µM (inactive)
- GI50 [22]: > 10 µM (inactive)
- GI50 [23]: > 10 µM (inactive)
- GI50 [24]: > 10 µM (inactive)
- GI50 [25]: > 10 µM (inactive)
- GI50 [26]: > 10 µM (inactive)
- GI50 [27]: > 10 µM (inactive)
- GI50 [28]: > 10 µM (inactive)
- GI50 [29]: > 10 µM (inactive)
- GI50 [30]: > 10 µM (inactive)
- GI50 [31]: > 10 µM (inactive)
- GI50 [32]: > 10 µM (inactive)
- GI50 [33]: > 10 µM (inactive)
- GI50 [34]: > 10 µM (inactive)
- GI50 [35]: > 10 µM (inactive)
- GI50 [36]: > 10 µM (inactive)
- GI50 [37]: > 10 µM (inactive)
- GI50 [38]: > 10 µM (inactive)

Compound: C(=N\Cc1ccccc1)/c1ccccc1-c1ccccc1/C=N/Cc1ccccc1
- GI50 [1]: 3.01 µM (inactive)
- GI50 [2]: > 10 µM (inactive)
- GI50 [39]: > 10 µM (inactive)
- GI50 [40]: > 10 µM (inactive)
- GI50 [3]: 3.52 µM (inactive)
- GI50 [4]: 2.36 µM (inactive)
- GI50 [41]: 4.6 µM (inactive)
- GI50 [42]: > 10 µM (inactive)
- GI50 [5]: > 7.57 µM (inactive)
- GI50 [6]: > 10 µM (inactive)
- GI50 [43]: > 10 µM (inactive)
- GI50 [7]: > 10 µM (inactive)
- GI50 [44]: > 8.53 µM (inactive)
- GI50 [45]: > 10 µM (inactive)
- GI50 [8]: 9.86 µM (inactive)
- GI50 [9]: > 10 µM (inactive)
- GI50 [10]: 3.13 µM (inactive)
- GI50 [46]: > 10 µM (inactive)
- GI50 [11]: > 10 µM (inactive)
- GI50 [47]: > 10 µM (inactive)
- GI50 [48]: > 7.96 µM (inactive)
- GI50 [13]: > 10 µM (inactive)
- GI50 [14]: 2.7 µM (inactive)
- GI50 [49]: > 10 µM (inactive)
- GI50 [15]: > 10 µM (inactive)
- GI50 [16]: 4.99 µM (inactive)
- GI50 [50]: 6.5 µM (inactive)
- GI50 [17]: > 10 µM (inactive)
- GI50 [51]: 2.65 µM (inactive)
- GI50 [18]: 4.59 µM (inactive)
- GI50 [52]: > 10 µM (inactive)
- GI50 [53]: > 10 µM (inactive)
- GI50 [54]: > 8.34 µM (inactive)
- GI50 [19]: 5.47 µM
- GI50 [20]: > 10 µM (inactive)
- GI50 [21]: > 7.46 µM (inactive)
- GI50 [22]: > 10 µM (inactive)
- GI50 [23]: > 10 µM (inactive)
- GI50 [55]: 5.42 µM (inactive)
- GI50 [24]: > 8.67 µM (inactive)
- GI50 [25]: > 9.62 µM (inactive)
- GI50 [26]: 3.26 µM (inactive)
- GI50 [27]: > 10 µM (inactive)
- GI50 [28]: > 10 µM (inactive)
- GI50 [29]: > 10 µM (inactive)
- GI50 [30]: > 10 µM (inactive)
- GI50 [31]: > 7.23 µM (inactive)
- GI50 [32]: > 10 µM (inactive)
- GI50 [33]: 5.33 µM (inactive)
- GI50 [56]: 2.86 µM (inactive)
- GI50 [34]: > 10 µM (inactive)
- GI50 [35]: > 7.03 µM (inactive)
- GI50 [36]: > 10 µM (inactive)
- GI50 [37]: > 10 µM (inactive)
- GI50 [57]: > 10 µM (inactive)
- GI50 [38]: 3.82 µM (inactive)

Compound: CCCCCCCCCCCCCCCCP(=O)(O)OP(=O)(O)OCC1OC(n2ccc(N)nc2=O)C(O)C1O (configuration not stated)
- GI50 [39]: 8.91 µM (inactive)
- GI50 [40]: 14.3 µM (inactive) and 22.9 µM (inactive)
- GI50 [41]: 60 µM (inactive)
- GI50 [5]: 32.4 µM (inactive) and 47.5 µM (inactive)
- GI50 [6]: > 100 µM (inactive)
- GI50 [45]: 18.5 µM (inactive) and 21.7 µM (inactive)
- GI50 [47]: > 100 µM (inactive) and 76.7 µM (inactive)
- GI50 [16]: > 90.2 µM (inactive)
- GI50 [18]: 16.9 µM (inactive) and 32.9 µM (inactive)
- GI50 [20]: 25.8 µM (inactive)
- GI50 [26]: 0.323 µM (active)
- GI50 [28]: 29.4 µM (inactive) and 41 µM (inactive)
- GI50 [37]: 31.8 µM (inactive) and 38.4 µM (inactive)
